Source: patent US11000502B2, “Antimicrobial compositions comprising copper-hydroxypyrone complexes” (United Kingdom Research and Innovation, priority 2017, dated 2021)

Assays:
E. coli NCTC1110 = assay: In vitro antibacterial assay for liquid copper solutions (turbidimetric E. coli growth inhibition); assay type: cell-based
Protocol: Preparation of Copper Complexes with EDTA, Maltol and Ethyl Maltol for Antimicrobial Testing
Cu-EDTA complexes were freshly prepared by dissolving CuCl2.2H2O and disodium ethylenediaminetetraacetate (EDTA) di-hydrate in UHP water. The pH was adjusted to 7.5±0.2 with 1M NaOH. Various Cu:EDTA ratios were achieved by maintaining concentration copper at 20 mM (ca. 1270 ppm), whilst changing that of EDTA—20 and 200 mM—thus achieving Cu-EDTA ratios of 1:1 and 1:10, respectively.
CuMaltol (ratio 1:1) was prepared by mixing equivalent volumes of 100 mM CuCl2.2H2O solution with an alkaline (pH>11) 100 mM maltol solution and quickly diluting the mixture to 10 mM Cu (final pH of 5.7).
Cu Ethylmaltol (ratio 1:1) was prepared by mixing appropriate volumes of 80 mM CuCl2.2H2 O solution with an alkaline (pH>10.5) 20 mM ethylmaltol solution and quickly diluting the mixture to 10 mM Cu and 10 mM ethylmaltol (final pH of 7.2).
CuMaltol (ratio 1:4) was prepared by mixing appropriate volumes of 80 mM CuCl2.2H2O solution with an alkaline (pH>10.5) 60 mM maltol solution and quickly diluting the mixture to 10 mM Cu and 40 mM maltol (final pH of 8.5).
Cu Ethylmaltol (ratio 1:4) was prepared by mixing appropriate volumes of 80 mM CuCl2.2H2O solution with an alkaline (pH>10.5) 60 mM ethylmaltol solution and quickly diluting the mixture to 10 mM Cu and 40 mM ethylmaltol (final pH of 8.5).
Heavy Metal MOPS (HMM) Medium, pH 7.2±0.2.
HMM is a defined medium developed for testing heavy metals and here was supplemented with glucose and cas-amino acids (acid hydrolysate of casein) and optionally with 4% BSA. HMM was prepared from concentrated stock solutions of each reagent, and pH adjusted to 7.2±0.2 (Table 1). Freshly prepared medium was immediately filtered through a 0.22 micron membrane and stored at 4±2° C.
In Vitro Antibacterial Assay for Liquid Copper Solutions
Antimicrobial activity was assessed through determination of E. coli NCTC1110 growth inhibition in the presence of copper compounds. A turbidimetric assay was used to follow bacterial concentration over time as this is proportional to optical density (OD at 595 nm) in liquid medium. Bacterial cultures were grown overnight in HMM at 30° C. under constant shaking (80 rpm). On the day of the assay, the OD of the bacterial suspension was measured at 595 nm on a plate reader and diluted in HMM to achieve an OD of 0.05. […] Final copper concentrations in the assay ranged between 0.4 and 50 ppm, and OD was measured every hour for a typical period of 6 to 8 hours. OD background, i.e. OD absorbance not caused by bacteria, was determined to remove readout interference from copper and broth. Growth inhibition was calculated as follows: […]

[1] = Exemplification of redox protection (copper maltol degradation to cuprous hydroxide); assay type: physicochemical; settings: pH 11.8 with sodium hydroxide; overnight (A) / several days (B, 30% (w/w) PEG)
Protocol: Exemplification of Redox Protection
A 40 mM copper stock was prepared by dissolving 0.347 g copper chloride dihydrate in 50 mL water. The resulting solution was blue.
A 160 mM maltol stock was prepared by dissolving 1.01 g maltol in 50 mL water and pH adjusting with NaOH (pH>10.5. This produced a clear solution.
Experiment A: Copper Maltol Degradation
The copper and maltol stocks were mixed in water at 1:1 ratios (v:v) producing a green solution. pH was then adjusted to 11.8 with sodium hydroxide to accelerate redox conversion.
Experiment B: Copper Maltol-PEG Assemblies Prevent Redox Conversion
Same as experiment A but 30% (w/w) PEG was added.

Compound: O=C([O-])CN(CCN(CC(=O)[O-])CC(=O)O)CC(=O)O.[Cu+2] [copper EDTA, reference compound]
- antibacterial action against E. coli (FIG. 1) (E. coli NCTC1110; HMM pH 7.2, 6 hours, Cu:EDTA 1:1 and 1:10): significantly suppressing its antibacterial action

Compound: [Cl][Cu][Cl] [copper chloride, reference compound]
- E. coli growth inhibition (E. coli NCTC1110; bacterial media (HMM) comprising 4% BSA, 50 ppm copper, 6 hours): 60%

Compound: Copper ethylmaltol
- antimicrobial properties in protein-rich environments (E. coli NCTC1110; HMM with 4% BSA, 6 hours, ratios 1:1 and 1:4): retained

Compound: copper maltol
- redox conversion of Cu2+ to cuprous hydroxide (red precipitate) [1]: a red precipitate (cuprous hydroxide) deposited
- suppression of E. coli growth (E. coli NCTC1110; bacterial media (HMM) comprising 4% BSA, 40 ppm copper, 6 hours): completely suppressed
